From patent US8772286B2, “MK2 inhibitors” (Merck Sharp & Dohme B.V., priority 2009, dated 2014) come the findings set out here.

The structures appear in SMILES notation. ≈ marks a conversion by molar mass, not a printed value. Where two headings read alike, the source gives them in different places. Bounds are passed on as bounds.

A short description of data set [1]: Solubility determination of MK2 inhibitors (kinetic aqueous solubility, UPLC). Format: physicochemical. As to conditions: aqueous buffer (system solution from pION inc.), 22 °C, pH 7.4, aqueous buffer, kinetic from dmso stock. Here is the method:
The solubility can be determined using the Automated Kinetic Aqueous Solubility (AKASol) method, which is an HPLC-UV based method. The method is derived from the classical saturated shake-flask solubility method which has been adapted to the 96-well microtitre plate format, allowing the use of DMSO stock solutions. The solubility is determined by measuring the amount of compound in a saturated aqueous solution, quantified by an external calibration curve of the compound dissolved in DMSO. The solubility (mg/L) is measured at pH 7.4, at room temperature and the final concentration of DMSO in the sample solution is 1%.
The samples were prepared from 10 mM DMSO stock solutions. For each compound under investigation, a volume (9 μL) of the DMSO stock solution is transferred from the DMSO stock solution into 891 μL of buffer solution (system solution from pION inc.) in a 96 deep well plate, which equates to approximately 1% DMSO, using the Packard Multiprobe II robot liquid handling system. The pH of the buffer is manually adjusted at pH 7.4 by adding NaOH. This procedure is done in duplicate for each sample. After shaking for 24 h on a vortex mixer (Heidolph, Titramax 101) at 450 rpm and at room temperature (21-23° C.), 300 uL of the incubated sample is transferred from the deep well plate to a filter plate (PVDF, 0.45 um) on a vacuum manifold. To the filtrate (150 uL) 1-propanol (50 uL) is added to suppress precipitation and this solution is then analysed by UPLC. The solubility is determined using the calibration line previously prepared.
Preparation of the Standards and Built up of a Calibration Line
The calibration line is built with different concentrations of the test compound (standards), prepared from the same 10 mM DMSO stock solution. A volume (7 uL) from the same DMSO stock solution was diluted with DMSO (273 uL) leading to a solution with concentration of 0.25 mM. From this solution, three different injection volumes (0.2, 1, 1.8 uL) were injected on UPLC. The respective peak areas are plotted against amount of compound to build up the calibration line. The calibration line is used to determine the amount of dissolved compound in each sample, selecting the injection that gave peak areas closest to the peak area range of the calibration standards.

Data set [2] has as its target T1, MK2 enzyme (Homo sapiens, UniProt P49137).
T1 construct: MK2 enzyme (active enzyme (peptide 46-end (Millipore))); purchased Millipore
As to the kind of experiment: MK2 enzyme activity, IMAP fluorescence polarization assay. Format: biochemical. The source says:
In another assay the MK2 kinase activity can be determined by using an IMAP assay (Immobilized Metal Assay for Phosphochemicals—based coupled assay). IMAP is a homogeneous fluorescence polarization (FP) assay based on affinity capture of phosphorylated peptide substrates. IMAP uses fluorescein-labeled peptide substrates that, upon phosphorylation by a protein kinase, bind to so called IMAP nanoparticles, which are derivatized with trivalent metal complexes. […] In such an assay, MK2 phosphorylates a fluorescein-labeled peptide substrate (see example 14).
MK2 enzyme activity is measured using the IMAP (immobilized metal ion affinity-based fluorescence polarization) assay as outlined below.
The enzyme is diluted to 100 U/mL the day before use in KR buffer (10 mM Tris-HCl, 10 mM MgCl2, 0.01% Tween-20, 0.05% NaN3, 2 mM DTT, pH 7.2) and stored overnight at −20° C.
The dilutions in DMSO are then diluted 50-fold in KR-buffer of which 5 μl is used in the assay, leading to a final compound concentration range in the assay from 10 μM to 0.316 nM.
After 60 min incubation at room temperature in the dark the FP signal is read. Fluorescence at 535 nm is measured using parallel and perpendicular filters to determine differences in rotation due to binding of the phosphorylated substrate peptide to the beads. Values are calculated as percentage of the difference in readout (ΔmPi) of the controls with and without ATP. EC50 values are determined by curve fitting of the experimental results using Activity Base.
In general terms: In fluorescence polarisation assays a small probe gives low polarisation when free and higher when bound to something large.

[3] abbreviates: pH 7.4, room temperature, about 1% DMSO, 24 h shaking, read-out: solubility.
The mark [4] stands for this setting: MK2 IMAP assay, 1 μM ATP, 30 min pre-incubation, 2 h room temperature, read-out: pEC50 value (converted).
The mark [5] stands for this setting: Table 2, compound of Formula (I) with amine-containing spiro ring, pH 7.4, read-out: Solubility pH 7.4 (mg/L), Formula (I).
Where [6] appears, read: Table 2, compound of Formula (I) with amine-containing spiro ring, MK2 IMAP assay, read-out: pEC50, Formula (I) (converted).
[7] abbreviates: Table 1, comparison compound of Formula (XV) without spiro ring, pH 7.4, read-out: Solubility pH 7.4 (mg/L), Formula (XV).

T1 sequence (P49137 46-400 limits assumed): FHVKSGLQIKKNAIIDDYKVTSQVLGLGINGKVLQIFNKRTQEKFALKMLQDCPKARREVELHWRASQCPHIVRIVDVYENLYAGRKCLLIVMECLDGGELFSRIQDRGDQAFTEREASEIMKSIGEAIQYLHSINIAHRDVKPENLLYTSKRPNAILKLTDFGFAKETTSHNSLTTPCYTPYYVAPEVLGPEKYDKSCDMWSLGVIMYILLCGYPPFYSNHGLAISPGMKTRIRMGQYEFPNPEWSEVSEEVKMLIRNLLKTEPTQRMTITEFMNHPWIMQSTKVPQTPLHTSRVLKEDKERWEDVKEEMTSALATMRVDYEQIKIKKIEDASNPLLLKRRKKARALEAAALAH

`NC(=O)c1cccc(-c2nccc(-c3cc4c([nH]3)C3(CCNCC3)CNC4=O)n2)c1` [1—29, 3-(4-(4′-oxo-1′,4′,5′,6′-tetrahydrospiro[piperidine-4,7′-pyrrolo[3,2-c]pyridine]-2′-yl)pyrimidin-2-yl)benzamide]: the solubility at 24 h in data set [1] (setting [3]) is no less than 50 mg/L. For the same molecule, the EC50 in data set [2] (setting [4]) was 0.00316 to 0.0316 µM.
For `Cc1ccc(-c2nccc(-c3cc4c([nH]3)C3(CCNC3)CNC4=O)n2)cc1` (stereo not drawn) [6—3, 2′-(2-p-tolylpyrimidin-4-yl)-5′,6′-dihydrospiro[pyrrolidine-3,7′-pyrrolo[3,2-c]pyridin]-4′(1′H)-one], in that order: no less than 50 mg/L and 0.00316 to 0.0316 µM.
As to `O=C1NCC2(CCNC2)c2[nH]c(-c3ccnc(-c4ccc5c(c4)OCO5)n3)cc21` (stereo not drawn) [6—2, 2′-(2-(benzo[d][1,3]dioxol-5-yl)pyrimidin-4-yl)-5′,6′-dihydrospiro[pyrrolidine-3,7′-pyrrolo[3,2-c]pyridin]-4′(1′H)-one], the solubility at 24 h in data set [1] (setting [3]) was no less than 50 mg/L. For the same molecule, in data set [2] (setting [4]), the EC50 was 0.00316 to 0.0316 µM.
With `O=C1NCC2(CCNCC2)c2[nH]c(-c3ccnc(-c4cnc5ccccc5c4)n3)cc21` [17_2 Formula (I)], in data set [1] (setting [5]), the solubility at 24 h was 23 mg/L. For the same molecule, the “pEC50, Formula (I)” value in data set [2] (Table 2, compound of Formula (I) with amine-containing spiro ring, MK2 IMAP assay) turned out to be 8.2.
`O=C1NCC2(CCNCC2)c2[nH]c(-c3ccnc(-c4ccc(C(F)(F)F)cc4)n3)cc21` [1—17, 2′-(2-(4-(trifluoromethyl)phenyl)pyrimidin-4-yl)-5′,6′-dihydrospiro[piperidine-4,7′-pyrrolo[3,2-c]pyridin]-4′(1′H)-one]: the solubility at 24 h in data set [1] (setting [3]) is no less than 50 mg/L. Also, the EC50 in data set [2] (setting [4]) was 0.00316 to 0.0316 µM.
On to `O=C1NCC2(CCNCC2)c2[nH]c(-c3ccnc(-c4cc5ccccc5o4)c3)cc21` [16_7 Formula (I)], for which the solubility at 24 h in data set [1] (Table 1, compound of Formula (I) with spiro ring, pH 7.4, read-out: Solubility pH 7.4 (mg/L), Formula (I)) turned out to be 66 mg/L. Further, the EC50 in data set [2] (Table 1, compound of Formula (I) with spiro ring, MK2 IMAP assay, read-out: pEC50, Formula (I) (converted)) is 0.00316 µM.
`O=C1NCC2(CCNC2)c2[nH]c(-c3ccnc(-c4cccc(F)c4)n3)cc21` (stereo not drawn) [17_4 Formula (I)]: the solubility at 24 h in data set [1] (setting [5]) amounted to 48 mg/L. Further, the EC50 in data set [2] (setting [6]) was 0.0126 µM.
As to `CC(C)c1cccc(-c2nccc(-c3cc4c([nH]3)C3(CCNCC3)CNC4=O)n2)c1` [1—14, 2′-(2-(3-isopropylphenyl)pyrimidin-4-yl)-5′,6′-dihydrospiro[piperidine-4,7′-pyrrolo[3,2-c]pyridin]-4′(1′H)-one], the solubility at 24 h in data set [1] (setting [3]) was in the range of 20 to 50 mg/L (≈ 49.8 to 125 µM). Besides, in data set [2] (setting [4]), the EC50 was 0.0316 to 0.316 µM.
With `CN1CCC2(CC1)CNC(=O)c1cc(-c3ccnc(-c4cc5ccccc5o4)n3)[nH]c12` [Example 2—1, 2′-(2-(benzofuran-2-yl)pyrimidin-4-yl)-1-methyl-5′,6′-dihydrospiro[piperidine-4,7′-pyrrolo[3,2-c]pyridin]-4′(1′H)-one], the solubility at 24 h in data set [1] (setting [3]) lay in the range of 20 to 50 mg/L (≈ 48.4 to 121 µM). In data set [2], the EC50 is 0.00316 to 0.0316 µM.
Consider `O=C1NCCc2[nH]c(-c3ccnc(-c4cc5ccccc5o4)n3)cc21` [16_6 Formula (XV)], for which the solubility at 24 h in data set [1] (setting [7]) came out at 2 mg/L. The EC50 in data set [2] (Table 1, comparison compound of Formula (XV) without spiro ring, MK2 IMAP assay, read-out: pEC50, Formula (XV) (converted)) is 0.0501 µM.
With `CC(=O)NCCCN1CCC2(CC1)CNC(=O)c1cc(-c3ccnc(-c4cc5ccccc5o4)n3)[nH]c12` [3—2, N-(3-(2′-(2-(benzofuran-2-yl)pyrimidin-4-yl)-4′-oxo-1′,4′,5′,6′-tetrahydrospiro[piperidine-4,7′-pyrrolo[3,2-c]pyridine]-1-yl)propyl)acetamide], the solubility at 24 h in data set [1] (setting [3]) is no less than 50 mg/L. Moreover, the EC50 in data set [2] (setting [4]) was 0.0316 to 0.316 µM.
For `CC(=O)NCCN1CCC2(CC1)CNC(=O)c1cc(-c3ccnc(-c4cc5ccccc5o4)n3)[nH]c12` [Example 3—1, N-(2-(2′-(2-(benzofuran-2-yl)pyrimidin-4-yl)-4′-oxo-1′,4′,5′,6′-tetrahydrospiro[piperidine-4,7′-pyrrolo[3,2-c]pyridine]-1-yl)ethyl)acetamide], in that order: no less than 50 mg/L and 0.00316 to 0.0316 µM.
For `O=C1NCC2(CCNCC2)c2[nH]c(-c3ccnc(-c4nc5ccccc5s4)c3)cc21` [Example 9—1, 2′-(2-(benzo[d]thiazol-2-yl)pyridin-4-yl)-5′,6′-dihydrospiro[piperidine-4,7′-pyrrolo[3,2-c]pyridin]-4′(1′H)-one], in that order: no less than 50 mg/L and 0.00316 to 0.0316 µM.
Regarding `O=C1NCCc2[nH]c(-c3ccnc(-c4cccc(F)c4)n3)cc21` [16_3 Formula (XV)], the solubility at 24 h in data set [1] (setting [7]) is 32 mg/L. Moreover, the EC50 in data set [2] is 0.501 µM.
For `CCC(=O)Nc1ccc(-c2nccc(-c3cc4c([nH]3)C3(CCNCC3)CNC4=O)n2)cn1` [1—9, N-(5-(4-(4′-oxo-1′,4′,5′,6′-tetrahydrospiro[piperidine-4,7′-pyrrolo[3,2-c]pyridine]-2′-yl)pyrimidin-2-yl)pyridin-2-yl)propionamide], the solubility at 24 h in data set [1] (setting [3]) is no less than 50 mg/L. Moreover, the EC50 in data set [2] (setting [4]) was 0.00316 to 0.0316 µM.
For `Cc1cc(-c2nccc(-c3cc4c([nH]3)C3(CCNCC3)CNC4=O)n2)cc(C(C)(C)C)c1` [1—19, 2′-(2-(3-tert-butyl-5-methylphenyl)pyrimidin-4-yl)-5′,6′-dihydrospiro[piperidine-4,7′-pyrrolo[3,2-c]pyridin]-4′(1′H)-one], in that order: no less than 50 mg/L and 0.0316 to 0.316 µM.
In the case of `O=C1NCC2(CCNCC2)c2[nH]c(-c3ccnc(-c4ccc(Cl)c(Cl)c4)n3)cc21` [Example 1—13, 2′-(2-(3,4-dichlorophenyl)pyrimidin-4-yl)-5′,6′-dihydrospiro[piperidine-4,7′-pyrrolo[3,2-c]pyridin]-4′(1′H)-one], in data set [1] (setting [3]), the solubility at 24 h was no less than 50 mg/L. In addition, in data set [2] (setting [4]), the EC50 is 0.00316 to 0.0316 µM.
For `O=C1NCC2(CCNCC2)c2[nH]c(-c3ccnc(-c4ccc(Oc5ccccc5)cc4)n3)cc21` [1—15, 2′-(2-(4-phenoxyphenyl)pyrimidin-4-yl)-5′,6′-dihydrospiro[piperidine-4,7′-pyrrolo[3,2-c]pyridin]-4′(1′H)-one], in that order: no less than 50 mg/L and 0.00316 to 0.0316 µM.
With `O=C1NCC2(CCOCC2)c2[nH]c(-c3ccnc(-c4cnc5ccccc5c4)n3)cc21` [17_2 Formula (XVI)], in data set [1] (Table 2, comparison compound of Formula (XVI), spiro ring without amine, pH 7.4, read-out: Solubility pH 7.4 (mg/L), Formula (XVI)), the solubility at 24 h came to 3 mg/L. The EC50 in data set [2] (Table 2, comparison compound of Formula (XVI), spiro ring without amine, MK2 IMAP assay, read-out: pEC50, Formula (XVI) (converted)) was 0.316 µM.
As to `CC(=O)c1cccc(-c2nccc(-c3cc4c([nH]3)C3(CCNCC3)CNC4=O)n2)c1` [1—30, 2′-(2-(3-acetylphenyl)pyrimidin-4-yl)-5′,6′-dihydrospiro[piperidine-4,7′-pyrrolo[3,2-c]pyridin]-4′(1′H)-one], the solubility at 24 h in data set [1] (setting [3]) is no less than 50 mg/L. Moreover, in data set [2] (setting [4]), the EC50 was 0.00316 to 0.0316 µM.
Regarding `O=C1NCC2(CCNC2)c2[nH]c(-c3ccnc(-c4cnc5ccccc5c4)n3)cc21` (stereo not drawn) [17_3 Formula (I)], the solubility at 24 h in data set [1] (setting [5]) was determined as 37 mg/L. For the same molecule, the EC50 in data set [2] (setting [6]) is 0.00251 µM.
